As a reminder, the IC50 is the midpoint of a concentration-inhibition curve.

The record followed here is patent US9663486B2, “Selectively substituted quinoline compounds” (EISAI R&D MANAGEMENT CO., LTD., priority 2013, dated 2017).

The structures appear in SMILES notation.

In this experiment the test system is Human TLR7/8. Put plainly: Human PBMC cell-based assay, TLR7/8 (RNA-Ig), cytokine ELISA. Conditions: PBMC assay data summary; ligand and analyte not given; read-out: Human PBMCs IC50. Here is the method: Human peripheral blood mononuclear cells (PBMC) were isolated from freshly-drawn heparinized (10 USP units/ml, Hospira, Lakeforest, Ill.) healthy donor whole blood by density gradient (Histopaque® 1077, Sigma, Inc., St. Louis, Mo.). Briefly, 25 ml blood was diluted with 15 ml PBS (without Ca^2+, Mg^2+) in a 50 ml conical tube, and 12 ml Histopaque was underlaid using a spinal needle. Tubes were centrifuged for 45 minutes at 1200 rpm (350×g), and PBMC were collected from the buffy coat. Cells were then washed twice in PBS, and red blood cells were lysed by suspension in 5 ml ammonium chloride solution (1× Red Blood Cell Lysis Buffer, eBioscience) for 5 minutes at room temperature. After a final wash in PBS, PBMC were resuspended at a final concentration of 2×10^6/ml in RPMI-1640 media with L-glutamine (Invitrogen) and supplemented with 25 mM HEPES (Mediatech, Inc, Manassas Va.), 10% fetal bovine serum (HyClone, Logan, Utah), and Penicillin-Streptomycin-Glutamine (Mediatech) and plated at 100 ul/well (2×10^5 cells/well) in tissue culture treated 96-well plates (Falcon).
Antagonist compounds solubilized and serial diluted in 100% DMSO were added in triplicate to cells to yield a final concentration of 0.1% DMSO (v/v). Hydroxychloroquine (Acros Organics) solubilized and serial diluted in PBS was added in triplicate to cells. PBMC were incubated with antagonist compounds or HCQ for 30 minutes at 37° C., 5% CO2 before adding various TLR agonist reagents in 100 ul complete media per well as follows (final concentrations indicated): R848 (Resiquimod; GLSynthesis, Worcester, Mass.) at 1 uM for TLR7 and TLR8, Pam3CSK4 (InvivoGen) at 50 ng/ml for TLR1/2, LPS (Sigma) at 10 ng/ml for TLR4, and CpG-2216 (InvivoGen) at 5 ug/ml for TLR9. […] The resulting “RNA-Ig” stimulus was incubated at room temperature for 15-30 minutes before adding to cells. PBMC were incubated with the various TLR agonists for 20 hours at 37° C., 5% CO2. Cell culture supernatants were collected, and levels of various human cytokines were assessed as indicated by standard ELISA procedure according to the manufacturer's recommended protocol (BD Biosciences, Inc., San Diego, Calif.).
(In general: An ELISA detects its analyte on a solid surface through an enzyme-linked reagent.)
As for `CC1CC(NC(=O)C(N)Cc2cccnc2)CN(c2ccc(C#N)c3ncccc23)C1` (stereo not drawn) [ER-898360], the concentration for half-maximal inhibition (IC50) was found to be 11 nM.

In the case of `CC1CC(NC(=O)C(O)C(C)C)CN(c2ccc(C#N)c3ncccc23)C1` (stereo not drawn) [ER-897972], the IC50 was found to be 17 nM.

Turning to `CC(C)CC(N)C(=O)NC1CC(C)CN(c2ccc(C#N)c3ncccc23)C1` (stereo not drawn) [ER-897998], the IC50 was 2 nM.

Consider `CC1CC(NC(=O)c2cccc(O)c2)CN(c2ccc(C#N)c3ncccc23)C1` (stereo not drawn) [ER-897973], for which the IC50 is 11 nM.

In the case of `CC1CC(NC(=O)CN)CN(c2ccc(C#N)c3ncccc23)C1` (stereo not drawn) [ER-897274], the IC50 turned out to be 7 nM.

`CCOC(=O)CNC1CC(C)CN(c2ccc(C#N)c3ncccc23)C1` (stereo not drawn) [ER-899504]: the half-inhibitory concentration (IC50) is 81 nM.

In the case of `CC1(C)C[C@@H](N)CN(c2ccc(C#N)c3ncccc23)C1` [ER-895386], the IC50 turned out to be 17 nM.

With `CC(=O)NC1CC(C)CN(c2ccc(C#N)c3ncccc23)C1` (stereo not drawn) [ER-896310], the half-maximal inhibitory concentration (IC50) was 63 nM.

For the molecule `C[C@H]1C[C@@H](NS(=O)(=O)CCN)CN(c2ccc(C#N)c3ncccc23)C1` [ER-899669], the IC50 was found to be 9 nM.

Turning to `CC1CC(NC(=O)CO)CN(c2ccc(C#N)c3ncccc23)C1` (stereo not drawn) [ER-897971], the IC50 is 5 nM.

On to `CC1CC(O)CN(c2ccc(C#N)c3ncccc23)C1` (stereo not drawn) [ER-896464], for which the half-maximal inhibitory concentration (IC50) was determined as 6 nM.

As to `C[C@H]1C[C@@H](NCc2cn(C)cn2)CN(c2ccc(C#N)c3ncccc23)C1` [ER-899552], the half-maximal inhibitory concentration (IC50) worked out at 104 nM.

Consider `C[C@H]1C[C@@H](N(C)C)CN(c2ccc(C#N)c3ncccc23)C1` [ER-889591], for which the IC50 was determined as 42 nM.

As to `CC1CC(NC(=O)C(N)C(C)C)CN(c2ccc(C#N)c3ncccc23)C1` (stereo not drawn) [ER-897987], the IC50 was determined as 12 nM.

In the case of `CC(C)CC(N)C(=O)NC1CC(C)CN(c2ccc(C#N)c3ncccc23)C1` (stereo not drawn) [ER-897999], the IC50 came out at 2 nM.

On to `CC1CC(NC(=O)C(N)c2ccccc2)CN(c2ccc(C#N)c3ncccc23)C1` (stereo not drawn) [ER-898350], for which the IC50 was 20 nM.

Consider `CN[C@@H]1C[C@H](C)CN(c2ccc(C#N)c3ncccc23)C1` [ER-897184], for which the half-inhibitory concentration (IC50) was 4 nM.

In the case of `CCOC(=O)CN(CC(=O)OCC)C1CC(C)CN(c2ccc(C#N)c3ncccc23)C1` (stereo not drawn) [ER-899505], the concentration for half-maximal inhibition (IC50) stood at 127 nM.

Turning to `COCCNC1CC(C)CN(c2ccc(C#N)c3ncccc23)C1` (stereo not drawn) [ER-897275], the IC50 is 6 nM.

Turning to `CNC(C(=O)NC1CC(C)CN(c2ccc(C#N)c3ncccc23)C1)C(C)C` (stereo not drawn) [ER-898334], the IC50 turned out to be 8 nM.

In the case of `CC1CC(NC(=O)CS(C)(=O)=O)CN(c2ccc(C#N)c3ncccc23)C1` (stereo not drawn) [ER-897978], the IC50 is 14 nM.

For `COCC(N)C(=O)NC1CC(C)CN(c2ccc(C#N)c3ncccc23)C1` (stereo not drawn) [ER-897990], the IC50 was determined as 3 nM.

`C[C@H]1C[C@@H](NC(=O)C2(N)COC2)CN(c2ccc(C#N)c3ncccc23)C1` [ER-899350]: the 50% inhibitory concentration (IC50) is 67 nM.

For the molecule `C[C@H]1C[C@@H](NCc2ncco2)CN(c2ccc(C#N)c3ncccc23)C1` [ER-899551], the concentration for half-maximal inhibition (IC50) turned out to be 24 nM.
